Data: PMC6773865, “Functional recruitment of dynamin requires multimeric interactions for efficient endocytosis” (Nature Communications, 2019)

System: clathrin mediated endocytosis (TfR-SEP) in NIH 3T3 cells
Assay: ppH assay combined with patch-clamp dialysis
Format: cell-based
Details: for inhibition of endocytosis on dialysis: peptide dialysed through patch pipette, 3T3 cells, ppH assay; for event frequency ratio f = FWC/FCA: event frequency 8–10 min whole cell over 3–5 min cell attached, same cell, average ± SEM, SEM
Experimental: To do so, we monitored cellular endocytic activity using the ppH assay with new developments for fully automated analysis on a large number of cells (See “Methods” and Supplementary Fig. 4). We combined this assay, which monitors in real time the endocytic activity of cells, with the patch-clamp technique in order to dialyse the relevant peptide at a known concentration inside the cellular cytoplasm to inhibit endocytosis acutely. Each recording consisted of 5 min in cell-attached mode (CA) with no dialysis followed by 10 min in whole cell mode (WC) during which the inhibitors were dialysed (Fig. 5a, b). Each recording therefore had its own internal control condition, i.e., the cell-attached mode, from which we obtained the frequency ratio f = FWC/FCA, where F is the event frequency recorded during the indicated mode. Of note, the electrical parameters of patch clamp recordings were similar in all conditions (Supplementary Fig. 5). To assess the innocuousness of this assay, we monitored the endocytic activity of unperturbed cells vs. cells dialysed with a control solution (see methods for composition). Patching the cells minimally affected their endocytic activity over a 10 min period (event frequency f = 67.3 ± 4.3%, n = 60, vs. 90.7 ± 14.9% in no patching recordings, n = 8, p = 0.58).
NIH 3T3 cells (ECACC 93061524) were cultured in DMEM supplemented with 1% sodium pyruvate, 1% glutamax and 10% fetal calf serum (Invitrogen). Cells were incubated at 37 °C in 5% CO2 until use and subcultured every 2 to 4 days for maintenance up to passage 20. Cells were transfected with 1.5 μg of TfR-SEP plasmid 24 h prior to imaging and patch clamp. Care was taken to find the right balance between sufficient fluorescent signal to allow for proper imaging and reasonable overexpression to diminish potential saturation artefacts. Best results were obtained using Fugene 6 (Promega) as the transfection reagent but Lipofectamine 2000 (Invitrogen) has also been used in this study due to a temporary arrest of Fugene 6 production by the provider. All transfections were performed according to the manufacturers’ recommendations. Four to eight hours after transfection, cells were seeded at a density of ~70,000 cells ml^−1 on 18 mm glass coverslips coated with poly-L-lysine (3 min application of 0.1 mM polylysine (Sigma P2636) in borate buffer, pH 8.0 followed by a quick rinse in PBS) and used the next day.
Fast solution exchange was controlled by electro-valves (Lee company) connected to a theta glass pipette (TG150, Harvard Apparatus) pulled to ∼100-μm tip size using a vertical puller (Narishige, World Precision Instruments) placed above the recorded cell. Cells were alternatively perfused with HEPES or MES buffered saline solutions (HBS/MBS) containing (in mM): 135 NaCl, 5 KCl, 0.4 MgCl2, 1.8 CaCl2, 1 D-glucose and 20 HEPES or MES. The pH was adjusted to 7.4 or 5.5 using NaOH and osmolarity to 310–315 mOsm L^−1 with NaCl.
Cells were patched with pipettes made of borosilicate glass (GC150F, Harvard Apparatus) and pulled with a vertical Narishige puller (World Precision Instruments). The solution contained (in mM): 130–140 KCH3SO3, 1 EGTA, 0.1 CaCl2, 10–20 HEPES, 4 ATP (sodium or magnesium salt), 0.4 Na-GTP (or GTPγS when indicated), 5 phosphocreatine and 3 sodium ascorbate. pH was adjusted to 7.2 using KOH and osmolarity to ~300 mOsm L^−1. Sodium ascorbate was omitted in earlier recordings but was added for better stability. Chloride ions either came from 2 mM KCl, 10 mM NaCl or 4 mM MgCl2 (when Na-ATP was used) in various trials. All salts were purchased from Sigma-Aldrich. Cells were voltage-clamped at −60 mV with an EPC10 amplifier (HEKA) with series resistance and cell capacitance estimation every 4 s in the whole cell mode. The digital triggers of the amplifier were used to drive the electrovalves for pH changes. […]

Row | Compound | inhibition of endocytosis on dialysis | event frequency ratio f = FWC/FCA (100 µM peptide in patch pipette, n = 13 (D15)) | event frequency ratio f = FWC/FCA (1 mM peptide in patch pipette, n = 22 (D15), 15 (D44), 6 (dD15-C))
1 | CC(=O)N[C@@H](Cc1ccc(O)cc1)C(=O)N[C@@H](CCCCn1cc(CCC(=O)NCCCOCCOCCOCCCNC(=O)CCC(=O)NCCCOCCOCCOCCCNC(=O)CCC(=O)NCCCOCCOCCOCCCNC(=O)CCC(=O)N2CCC[C@H]2C(=O)N2CCC[C@H]2C(=O)N2CCC[C@H]2C(=O)N[C@@H](CCC(N)=O)C(=O)N[C@H](C(=O)N2CCC[C@H]2C(=O)N[C@@H](CO)C(=O)N[C@@H](CCCNC(=N)N)C(=O)N2CCC[C@H]2C(=O)N[C@@H](CC(N)=O)C(=O)N[C@@H](CCCNC(=N)N)C(=O)N[C@@H](C)C(=O)N2CCC[C@H]2C(=O)N2CCC[C@H]2C(=O)NCC(N)=O)C(C)C)nn1)C(=O)NCCCOCCOCCOCCCNC(=O)CCC(=O)NCCCOCCOCCOCCCNC(=O)CCC(=O)NCCCOCCOCCOCCCNC(=O)CCC(=O)N1CCC[C@H]1C(=O)N1CCC[C@H]1C(=O)N1CCC[C@H]1C(=O)N[C@@H](CCC(N)=O)C(=O)N[C@H](C(=O)N1CCC[C@H]1C(=O)N[C@@H](CO)C(=O)N[C@@H](CCCNC(=N)N)C(=O)N1CCC[C@H]1C(=O)N[C@@H](CC(N)=O)C(=O)N[C@@H](CCCNC(=N)N)C(=O)N[C@@H](C)C(=O)N1CCC[C@H]1C(=O)N1CCC[C@H]1C(=O)NCC(N)=O)C(C)C [dD15-N] | clearly increased efficiency over D15 | – | –
2 | Ac-YPPPQVPSRPNRAPPG-NH2 [D15, reference compound] | only partial | 59.0 ± 5.0% | 38.2 ± 3.9%
